In ChEMBL document CHEMBL1127906, “Design and synthesis of novel muscarinic agonists containing the 1,2,4-triazine ring as an ester bioisostere” (Bioorg Med Chem Lett, 1994) one finds IC50 and Ratio data, which are given here for ten compounds.

The target of assay [1] is Muscarinic acetylcholine receptor. Description: Ability to inhibit [3H]quinuclidinyl benzilate(QNB) binding in rat cerebral cortex, activity expressed as IC50. Type of assay: tissue-based.
The target of assay [2] is Muscarinic acetylcholine receptor (Rattus norvegicus) (UniProt P08482+P08483+P08485+P08911+P10980). Description: Ratio of IC50 values for inhibition of QNB and OXO-M was measured for efficacy of the compound.
The target of assay [3] is Muscarinic acetylcholine receptor. The assay can be described thus: Ability to inhibit [3H]oxotremorine-M (OXO-M) binding in rat cerebral cortex. Type of assay: tissue-based.

SMILES strings stand for the structures.

Take `CSc1nncc([C@H]2CN3CC[C@H]2C3)n1`: the IC50 in assay [1] is 1300 nM; in assay [3] it was 290 nM. For the same compound, the Ratio in assay [2] was determined as 4.5.

Take `Cc1nncc(C23CCN(CC2)C3)n1`: the half-maximal inhibitory concentration (IC50) in assay [1] came out at 4100 nM; in assay [3], 70 nM. The Ratio in assay [2] was determined as 59.

On to `Cc1nncc(C2CN3CCC2CC3)n1` (stereo not given), for which the IC50 stood at 225 nM in assay [1] and 4 nM in assay [3]. For the same compound, the Ratio in assay [2] turned out to be 56.

For the compound `Cc1nncc(C23CCCN(CC2)C3)n1` (stereo not given), the IC50 in assay [1] worked out at 1800 nM; in assay [3], 33 nM. Further, the Ratio in assay [2] turned out to be 55.

As to `COc1nncc([C@H]2CN3CC[C@H]2C3)n1`, the IC50 amounted to 2400 nM in assay [1] and 140 nM in assay [3]. In addition, in assay [2], the Ratio stood at 17.

With `Cc1noc([C@H]2CN3CC[C@H]2C3)n1`, the values for the IC50 in assay [1] and in assay [3] were 1000 nM and 2.8 nM, respectively. The Ratio in assay [2] turned out to be 360.

As to `c1nncc([C@H]2CN3CC[C@H]2C3)n1`, the IC50 in assay [1] amounted to 1400 nM; in assay [3] it was 3.8 nM. Moreover, the Ratio in assay [2] was determined as 370.

On to `CCc1nncc([C@H]2CN3CC[C@H]2C3)n1`, for which the IC50 in assay [1] is 410 nM; in assay [3], 46 nM. The Ratio in assay [2] was 9.

With `Cc1nncc([C@H]2CN3CC[C@H]2C3)n1`, the IC50 in assay [1] is reported as 410 nM; in assay [3], 3.9 nM. Besides, the Ratio in assay [2] was found to be 105.

As for `Nc1nncc([C@H]2CN3CC[C@H]2C3)n1`, the IC50 came to 990 nM in assay [1] and 2.1 nM in assay [3]. In assay [2], the Ratio is 460.

The IC50 is the point on the concentration scale where inhibition reaches its midpoint. Read a high IC50 as a need for much substance.
